Data published in patent US20080090788A1, “Chemical Compounds” (priority 2005, published 2008).

Columns and labels:
IkB-α promoter = IkB-α promoter luciferase activity in transfected activated HSC; format: cell-based; details: 24 hours, rat HSC; for inhibition of IkB-α promoter activity compared with SFZ 1 mM: 3a 0.150 mM, 3e 0.127 mM, 3f 0.089 mM (at IC50)
Procedure: For HSC transfections, activated HSC were transfected by the non-liposomal Effectene protocol (Qiagen, UK) using 1 μg reporter plasmid DNA and 10 ng of control Renilla plasmid pRLTK (Promega, Southampton, UK) according to the manufacturer's instructions. After 24 hours, HSC were treated with test compounds for a further 24 hours. Luciferase assays were performed using a dual luciferase kit (Promega) according to the manufacturer's instructions. Firefly luciferase activities were normalised for differences in transfection efficiency by measurement of the activity of the co-transfected pRLTK. The pIκBα wt-Luc plasmid contains nucleotides −332 to +35 of the human IkB-α promoter cloned upstream of luciferase gene (Oakley F, et al, J Biol Chem 2003; 278: 24359-70). The pTIMP1-Luc plasmid contains the 162 bp human TIMP1 minimal promoter cloned upstream of luciferase gene (Bertrand-Philippe M, et al. J Biol Chem 2004; 279: 24530-9). The pAP1-Luc plasmid (Stratagene, UK) contains 7 copies of a consensus AP-1 binding site upstream of the minimal promoter and the luciferase gene.
To extend these findings, further analyses were performed using the […] promoter which contains multiple NF-kB binding sites and is a well studied NF-kB target. […] Consistent with the presence of activated NF-kB in HSC, (Wright M C et al, Gastroenterology 2001; 121: 685-98.) the IkB-α promoter was activated in HSC (FIG. 2a). SFZ (1 mM) inhibited promoter activity by >60%. […] Therefore, the improved inhibitory activity of analogues 3a, 3e and 3f is specific for NF-kB mediated transcription and is not restricted to U937 cells or artificial promoter constructs.
Rat HSC were transfected with (A) IkB-α-Luc, (B) TIMP1-Luc or (C) pAP-1-Luc reporter constructs. After 24 hours, cells were treated with sulfasalazine (1 mM), 3a (0.150 mM), 3e (0.127 mM), 3f (0.089 mM), or treated with DMSO as a control. Luciferase activity was determined after another 24 hours. Data presented are mean luciferase activity (±SEM) relative to control cells (value set to 100), derived from two separate experiments, each performed in duplicate and using an independent preparation of HSC.

CLL cells = assay: CLL apoptosis by PARP cleavage; format: cell-based, human; details: 6 hours; for PARP cleavage in CLL cells compared with SFZ: 0.5 mM, three patient samples
Procedure: CLL apoptosis was quantified by analysing PARP which is cleaved by effector caspases during apoptosis. CLL cells isolated from three individual patients were recovered from storage in liquid nitrogen and cultured at a density of 1.25×10^6 cells in 1 ml of growth medium (RPMI 1640, 10% (v/v) FCS and antibiotics). After 1 hour, […] were treated with compounds. Cells were harvested 6 hours after addition of compound, resuspended in 1×SDS-PAGE sample buffer and sonicated prior to immunoblot analysis for PARP expression as described below. PARP cleavage was quantified by determining the amount of cleaved PARP as a percentage of total PARP expression by digital image analysis.
The ability of SFZ and the analogues to induce CLL apoptosis was analysed. CLL cells from 3 individual patients were treated with SFZ for 6 hours and apoptosis was quantified by analysing PARP cleavage. […] The amount of apoptosis induced by SFZ and compounds 3a and 3f (at 0.5 mM) was compared.
(§1) (A) CLL cells from three different patients were cultured in the presence of SFZ or compounds 3a and 3f (all at 0.5 mM), or DMSO as a solvent control. After 6 hours, the degree of PARP cleavage was determined as a measure of apoptosis. […] Note that compound 3f was not tested in cells from patient 3. (B) HSC were cultured in the presence of SFZ (1 mM), compounds 3a (0.150 mM), 3e (0.127 mM), 3f (0.089 mM), or DMSO as a solvent control. Analogues were used at the concentration that gave 50% inhibition of NF-kB transcriptional activity in U937 cells. After 20 hours, the proportion of apoptotic cells were visualised by acridine orange staining. Apoptotic cells were counted in five fields in duplicate for each concentration, in two independent experiments and results expressed as mean ±SEM,

[1] = test system: Hepatic stellate cells (HSC); assay: HSC apoptosis by acridine orange staining; format: cell-based, rat; details: for degree of HSC apoptosis compared with SFZ 1 mM: 3a 0.150 mM, 3e 0.127 mM, 3f 0.089 mM (approximately 5-fold lower concentrations)
Procedure: To determine the effects of SFZ analogues on HSC survival, activated HSC were treated for 24 hrs with SFZ or analogues, and apoptotic HSC were visualised by staining with Acridine orange (1 μg/ml in 10 mM 4-(2-hydroxyethyl)-1-piperazineethanesulfonic acid (Hepes) buffer, pH7.4). The proportion of apoptotic cells in five random fields were counted in duplicate wells at x20 magnification using a fluorescein isothiocyanate filter. Apoptosis of HSC measured by acridine orange correlates closely with activation of caspase 3.
In addition to its role in malignant cells, NF-kB is required for survival of HSC, which play a key role in the pathogenesis of chronic liver disease. The ability of SFZ and analogues to induce HSC apoptosis was also compared. SFZ (1 mM) increased apoptosis ˜4.5-fold in cultured rat HSC (FIG. 5b). […] Therefore, the SFZ analogues with improved NF-kB-inhibiting activity are also relatively potent inducers of HSC apoptosis.
as §1

| SMILES | inhibition of IkB-α promoter activity compared with SFZ 1 mM (IkB-α promoter) | PARP cleavage in CLL cells compared with SFZ (CLL cells) | degree of HSC apoptosis compared with SFZ 1 mM [1] | inhibition at 1000 µM (IkB-α promoter; SFZ 1 mM) | induction of apoptosis (PARP cleavage) in CLL cells (CLL cells; cells from 3 patients, dose response) | increase in apoptosis of cultured HSC ([1]; SFZ 1 mM, cultured rat HSC) |
| --- | --- | --- | --- | --- | --- | --- |
| COc1ccc(CNS(=O)(=O)c2ccc(/N=N/c3ccc(O)c(C(=O)O)c3)cc2)cc1 [Compound 3a, 2-hydroxy-5-[4-(4-methoxy-benzylsulfamoyl)-phenylazo]-benzoic acid] | approximately equally effective | induced more PARP cleavage than SFZ | approximately the same degree of apoptosis |  |  |  |
| Cc1cc(/N=N/c2ccc(S(=O)(=O)NCc3ccc(C(F)(F)F)cc3)cc2)cc(C(=O)O)c1O [Compound 3e, 2-hydroxy-3-methyl-5-[4-(4-trifluoromethyl-benzylsulfamoyl)-phenylazo]-benzoic acid] | approximately equally effective |  | approximately the same degree of apoptosis |  |  |  |
| O=C(O)c1cc(/N=N/c2ccc(S(=O)(=O)NCc3ccc(C(F)(F)F)cc3)cc2)ccc1O [Compound 3f, 2-hydroxy-5-[4-(4-trifluoromethyl-benzylsulfamoyl)-phenylazo]-benzoic acid] | approximately equally effective | induced more PARP cleavage than SFZ | approximately the same degree of apoptosis |  |  |  |
| O=C(O)c1cc(/N=N/c2ccc(S(=O)(=O)Nc3ccccn3)cc2)ccc1O [SFZ, Sulfasalazine, reference compound] |  |  |  | > 60% | induced dose dependent apoptosis | ~4.5 fold |
